Source: US5686458A, “Quinazoline deriviates for treating peptic ulcer” (Yuhan Corporation, priority 1992, dated 1997)

Tests used:
gastric secretion = experiment: Inhibition of Gastric Secretion, pylorus-ligated rats (Experiment 2); type: in vivo, Sprague-Dawley rats; conditions: relative to omeprazole (equation III), 20 mg/kg intraduodenally, pylorus-ligated rats, 5 hours
In short: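 Sprague-Dawley rats (170±10 g, n=5/group), fasted 24 h, pylorus-ligated under ether; compounds given intraduodenally at 20 mg/kg in 30% aqueous PEG 400. Gastric juice collected after 5 h, volume and acidity measured; relative volume, acid concentration and acid output computed versus vehicle and omeprazole groups.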

[1] = test system: gastric secretion stimulated by histamine; experiment: Anti-secretory effects when gastric secretion is stimulated by histamine (Experiment 3-1); type: in vivo, Sprague-Dawley male rats; conditions: intravenous; for ED50: Rattus norvegicus, read-out: ED50, gastric secretion inhibition
Description: In accordance with the method [see Ghosh and Shild, et al., British Journal of pharmacology 13:54-61 (1958)], anti-secretory effects of the test substances were studied in this Experiment. Sprague-Dawley male rats having a body weight of 200±20 g were divided into 3 groups, Group 1 to be administered with the compound of Example 34, Group 2 to be administered with SK&F96067[see Keeling, D. […] The rats of each Group, deprived of food for 24 hours before the experiment with free access to water, were anesthetized by intraperitoneally administering of 1.5 g/kg of 20% aqueous urethane solution and positioned on the test plate which was heated and maintained at 37° C. The anesthetized rats were cannulated at the right jugular vein for the administration of the test compounds and the left jugular vein for the administration of stimulating substances. After an abdominal incision, tubes were inserted into the esophagus and duodenum, each of which was connected with saline in a thermostat and a fraction collector. […] To the left jugular vein, histamine was administered as a gastric secretion stimulator. […] The gastric secretion inhibition (%) of the test compounds was calculated from the following equation: The gastric secretion inhibition (%) of the test compounds =(A-C)/(A-B)×100 . . . (IV) in which […]

[2] = target: T1, H^+ /K^+ ATPase (proton pump), gastric vesicles (Sus scrofa, UniProt P19156); experiment: Determination of H+/K+ ATPase activity, Lineweaver-Burk kinetics versus K+ (Experiment 4-2); type: biochemical, pig; conditions: for Competitive inhibition with K+ at the K+ binding site of proton pump: Lineweaver-Burk plot, KCl 0.1 to 30 mM
T1 construct: Gastric vesicles were prepared from pig stomach; from tissue; host or cells: pig stomach, lyophilized gastric vesicles
Description: Gastric vesicles were prepared from pig stomach by the method described in Saccomani G., et al., J. Biol. Chem. 250, 4802-4809 (1975). The vesicles were lyophilized and kept at -70° C. The protein content was determined by the method of Lowry et al., using bovine serum albumin as standard[see Lowry, O. H., Rosebrough, N. J. and Randall, R. J., J. Biol. Chem. 193, 265-275 (1951)].
Test tubes were divided into 4 groups, each having 3 test tubes. As a control group, group 1 was added with the 10 μl of DMSO. Groups 2, 3 and 4 were administered with the compound prepared in example 34 whose final concentration are 0.17 μM, 0.33 μM and 0.67 μM, respectively. Each group was further divided into 3 small groups, in which enzymes were activated by ATP; ATP and Mg^++; and ATP, Mg^++ and K^+, respectively.
To all of the test tubes, were added 100 μl of lyophilized vesicles prepared at the concentration of 25 μg protein/ml and then 90 μl of 5 mM Pipes/Tris buffer pH 7.0. The compound prepared in Example 34 was added to each Group until the final concentration thereof became 0.17, 0.33 or 0.67 μM, respectively, They were preincubated for 15 minutes.
50 μl of ATP(3 mM) was added to each of the four Groups and the 50 μl of MgCl2 (2 mM) was added only to the 2nd and 3rd small groups of all Groups. Further, to the 3rd small groups of all Groups, were added 50 μl of KCl solution of various concentrations(from 0.1 mM to 30 mM) and then 150μl of Pipes/Tris buffer of pH 7.0. To the rest small groups, Pipes/Tris buffer of pH 7.0 was added until the volume became the same as that of the 3rd small group.
The test tube's were incubated at 37° C. for 30 minutes and then the reaction was terminated by adding 25% cold trichloroacetic acid solution. They were centrifuged by means of a microcentrifuge and the supernatant was taken up for the measurement of the released inorganic phosphate content by an automatic analyzer(CIBA CORNING, Express 550).
In accordance with the same procedures as above, except that 15 and 30 μm of omeprazole and 0.75, 1.5 and 3.0 μm of SK&F96067 were used as comparative substances, released inorganic phosphate content was measured.
The released inorganic phosphate contents of the three small groups were considered as the activity of H^+ /K^+ ATPase at each of the concentrations employed. The specific activity of H^+ /K^+ ATPase was calculated from the following equation:
Specific activity=(A-C)-(B-C) . . . (V)
A is the activity of enzyme activated by ATP, Mg^++ and , K^+ ;
B is the activity of enzyme activated by ATP and M^++ and
C is the activity of enzyme activated by ATP.
The specific activity, thus calculated, of Groups 1, 2, 3 and 4 which employed DMSO and the compound of Example 34 at 3 different concentrations were then plotted with respect to the concentration of KCl in FIG. 1 according to the method of Lineweaver-Burk, wherein .box-solid., .quadrature. and .largecircle. represent the respective concentrations of the compound of Example 34 of 0.67 μM, 0.33 μM and 0.17 μM; and .oval-solid. represents concentration of the DMSO compound. FIG. 2 depicts the Lineweaver-Burk plot of the specific activities obtained from SK&F96067, wherein .box-solid., .quadrature. and .largecircle. represent its respective concentrations of 3.0 μM, 1.5 μM, 0.75 μM; and .oval-solid. represents concentration of the DMSO compound. FIG. 3 illustrates the Lineweaver-Burk plot of the specific activities obtained from omeprazole, wherein .oval-solid. and .quadrature. represent its concentrations of 15 μM and 30 μM; and .largecircle. represents the concentration of DMSO.

T1 sequence (P19156 2-1034 limits assumed): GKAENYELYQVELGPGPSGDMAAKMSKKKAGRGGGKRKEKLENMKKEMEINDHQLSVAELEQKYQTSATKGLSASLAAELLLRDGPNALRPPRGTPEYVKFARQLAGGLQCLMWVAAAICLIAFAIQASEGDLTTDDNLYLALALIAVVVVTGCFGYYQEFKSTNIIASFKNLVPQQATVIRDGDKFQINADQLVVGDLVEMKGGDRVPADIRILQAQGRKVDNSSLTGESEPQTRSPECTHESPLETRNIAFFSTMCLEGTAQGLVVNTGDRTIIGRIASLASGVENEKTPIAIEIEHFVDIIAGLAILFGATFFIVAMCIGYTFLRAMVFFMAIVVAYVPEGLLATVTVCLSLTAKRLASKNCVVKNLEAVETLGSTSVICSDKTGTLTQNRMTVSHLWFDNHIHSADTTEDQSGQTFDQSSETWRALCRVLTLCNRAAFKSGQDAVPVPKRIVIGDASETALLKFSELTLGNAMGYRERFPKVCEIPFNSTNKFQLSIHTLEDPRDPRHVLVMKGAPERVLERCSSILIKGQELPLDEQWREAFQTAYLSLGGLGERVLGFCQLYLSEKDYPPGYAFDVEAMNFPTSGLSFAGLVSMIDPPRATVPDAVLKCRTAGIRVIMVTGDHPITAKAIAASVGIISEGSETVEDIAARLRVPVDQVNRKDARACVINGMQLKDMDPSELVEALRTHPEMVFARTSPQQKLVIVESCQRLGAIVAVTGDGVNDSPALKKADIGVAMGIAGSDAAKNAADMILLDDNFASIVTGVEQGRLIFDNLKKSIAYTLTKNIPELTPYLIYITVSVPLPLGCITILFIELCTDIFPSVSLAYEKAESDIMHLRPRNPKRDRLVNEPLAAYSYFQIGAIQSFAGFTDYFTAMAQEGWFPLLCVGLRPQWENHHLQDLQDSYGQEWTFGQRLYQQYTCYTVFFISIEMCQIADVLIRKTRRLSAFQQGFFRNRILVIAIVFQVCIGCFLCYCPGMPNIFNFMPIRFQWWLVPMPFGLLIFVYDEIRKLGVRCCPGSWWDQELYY
T1 sequence (P18434 whole entry partner): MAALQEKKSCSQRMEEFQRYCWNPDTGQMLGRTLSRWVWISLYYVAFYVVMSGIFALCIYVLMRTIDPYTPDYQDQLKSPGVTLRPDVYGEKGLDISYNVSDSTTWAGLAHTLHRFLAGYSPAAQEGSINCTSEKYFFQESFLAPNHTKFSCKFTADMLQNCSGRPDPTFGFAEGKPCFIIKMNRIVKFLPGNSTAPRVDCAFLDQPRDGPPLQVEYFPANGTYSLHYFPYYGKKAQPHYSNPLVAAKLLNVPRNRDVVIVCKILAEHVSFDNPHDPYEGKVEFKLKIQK

COc1cccc2c(N3CCc4ccccc4C3C)nc(Nc3ccc(F)cc3C)nc12.Cl (centres unmarked) [Example 34, 8-Methoxy-2-(4-Fluoro-2-Methyl-Phenylamino)-4-(1-Methyl-1,2,3,4-Tetrahydroisoquinoline-2-Yl)Quinazoline Hydrochloride]
Relative Acid Output (gastric secretion): 0.97
The gastric secretion inhibition (%) ([1]; 0.5 mg/kg): 44.4%
The gastric secretion inhibition (%) ([1]; 1.0 mg/kg): 52.0%
The gastric secretion inhibition (%) ([1]; 3.0 mg/kg): 76.5%
ED50 [1]: 0.9 mg/kg
Competitive inhibition with K+ at the K+ binding site of proton pump [2]: inhibited competitively with K^+
Ki ([2]; Lineweaver-Burk, versus K+, pH 7.0): 40 nM

COc1ccc2[nH]c([S+]([O-])Cc3ncc(C)c(OC)c3C)nc2c1 (centres unmarked) [Omeprazole, omeprazole, reference compound]
The gastric secretion inhibition (%) ([1]; 0.1 mg/kg): 8.0%
The gastric secretion inhibition (%) ([1]; 0.3 mg/kg): 49.4%
The gastric secretion inhibition (%) ([1]; 1.0 mg/kg): 102.3%
ED50 [1]: 0.29 mg/kg
Inhibition overcome by increasing the concentration of KCl ([2]; 15 and 30 μM): not overcome by increasing the concentration of KCl
Reaction speed in comparison with the control values ([2]; 15 and 30 μM): greatly reduced
Competitive inhibition with K+ at the K+ binding site of proton pump [2]: did not inhibit competitively
